Laboratory results published in US20250179057A1, “MEK IMMUNE ONCOLOGY INHIBITORS AND THERAPEUTIC USES THEREOF” (Immuneering Corporation, priority 2022, published 2025).
Read-outs that look alike come from different tables or passages of the source.

Columns and labels:
[1] = Liver microsome stability (% remaining at 1 hour), human; type: in vitro ADME; conditions: 2 μM
Procedure: (§1) Materials and Methods: Individual stock solutions of Test Articles (TA) were prepared at 30 mM in DMSO and were further diluted to 2 mM in DMSO. […] Prior to use in the assay, the 2 mM stock solutions were diluted 10-fold with acetonitrile. The acetonitrile diluted stocks were diluted 1:50 into warm (37° C.) 0.1 M potassium phosphate, pH 7.4, containing 2.0 mM NADPH (2× final assay concentration). Frozen liver microsomes were quick thawed in a 37° C. water bath and then placed on ice. […] The plate was incubated with gentle shaking at 37° C. Duplicate 30 μL aliquots were removed immediately after compound addition (To: time zero) and at 60 minutes. […] The quenched samples were gently mixed and were stored in a −20° C. freezer for at least 30 minutes. […]
(§2) Data Collection and Calculations: Analyst (AB Sciex) and Acquity (Waters) were used for data acquisition. Results were calculated using Microsoft Excel.
(§3) Peak area ratios for IS-normalized test article counts were used to calculate the percent remaining relative to the time zero (T0) value. As appropriate, results were plotted and further analyzed to calculate half-life (T1/2) and CLint values. […]
(§4) Results were plotted [ln (% remaining) vs. incubation time] and further analyzed to calculate half-life (T1/2) values: […]

[2] = Liver microsome stability (% remaining at 1 hour), beagle dog; type: in vitro ADME; conditions: 2 μM
Procedure: as §1, §2, §3, §4

[3] = tested on: phospho-ERK in SK-MEL-2 cells; test: pERK/tERK ratio in SK-MEL-2 melanoma model; type: cell-based; conditions: SK-MEL-2 (NRAS p.Q61R); 100 nM
Procedure: (§5) Compound (drug) treatment: Cells were plated in a 6-well plate at a density of 250,000-300,000 cells/well in 3 mL media and incubated 37° C. in a humidified, 5% CO2 incubator. […] These solutions were added to the cells (3 uL/well), mixed by swirling the plate, and incubated at 37° C. in a humidified, 5% CO2 incubator for 2 hours.
(§6) Cell lysis and protein estimation: Cells were washed with PBS, and scraped in 50 μL of lysis buffer containing protease and phosphatase inhibitors. Cell lysates were stored at −20° C. Cell lysates were thawed and spun at 12,000 rpm for one minute, 3 ul of the supernatant was added to 500 μL of Coomassie blue reagent following by 500 μL of water. […] Protein standards were used (0-20 mg/mL) to calculate protein concentrations of test samples.
(§7) All samples were heated at 95° C. for 5 minutes, cooled to room temperature and spun down. […] After the run, gel was removed and protein transfer was done using iBlot for 7 minutes, as per manufacturer's recommendations. After the transfer, nitrocellulose membrane was incubated on a shaker in 5 mL of blocking buffer at room temperature for 1 hr. The blot was then incubated overnight on a shaker in 5 ml of blocking buffer containing 0.2% Tween-20 and primary antibody, at room temperature. Anti-phospho-STAT3 antibody was used at a dilution of 1:500, the other 3 primary antibodies were used at a dilution of 1:1000.
(§8) Next day, the blot was washed 3 times for 10 min each with 10 mL of TBST followed by incubation on a shaker in 5 ml of blocking buffer containing 0.2% Tween-20 and 0.5 ul of the IRDye labeled secondary antibodies, diluted 1:10000, at room temperature for 1 hr. The blot was then washed 3 times for 10 min each with 10 mL of TBST and dried between sheets of paper towels. Imaging was done using LICOR's Odyssey imaging system, quantitation was done using their software, Image Studio version 3.1.
(§9) The nine models are described in Table 16.

[4] = tested on: phospho-ERK in MM127 cells; test: pERK/tERK ratio in MM127 melanoma model; type: cell-based; conditions: MM127 (NRAS p.G13R, BRAF p.G464E); 100 nM
Procedure: as §5, §6, §7, §8, §9

[5] = tested on: phospho-ERK in MM415 cells; test: pERK/tERK ratio in MM415 melanoma model; type: cell-based; conditions: MM415 (NRAS p.Q61L); 100 nM
Procedure: as §5, §6, §7, §8, §9

[6] = tested on: phospho-ERK in Hs852.T cells; test: pERK/tERK ratio in Hs852.T melanoma model; type: cell-based; conditions: Hs852.T (NRAS p.G12V); 100 nM
Procedure: as §5, §6, §7, §8, §9

[7] = tested on: phospho-ERK in SK-MEL-28 cells; test: pERK/tERK ratio in SK-MEL-28 melanoma model; type: cell-based; conditions: SK-MEL-28 (BRAF p.V600E); 100 nM
Procedure: as §5, §6, §7, §8, §9

[8] = tested on: phospho-MEK in MEL-JUSO cells; test: pMEK/tMEK ratio in MEL-JUSO melanoma model; type: cell-based; conditions: MEL-JUSO (HRAS p.G13D, NRAS p.Q61L); 100 nM
Procedure: as §5, §6, §7, §8, §9

[9] = tested on: phospho-MEK in SK-MEL-30 cells; test: pMEK/tMEK ratio in SK-MEL-30 melanoma model; type: cell-based
Procedure: as §5, §6, §7, §8, §9

[10] = tested on: phospho-MEK in Hs852.T cells; test: pMEK/tMEK ratio in Hs852.T melanoma model; type: cell-based; conditions: Hs852.T (NRAS p.G12V); 100 nM
Procedure: as §5, §6, §7, §8, §9

[11] = tested on: phospho-MEK in MeWo cells; test: pMEK/tMEK ratio in MeWo melanoma model; type: cell-based; conditions: MeWo (NF1 LoF); 100 nM
Procedure: as §5, §6, §7, §8, §9

[12] = tested on: phospho-MEK in A375 cells; test: pMEK/tMEK ratio in A375 melanoma model; type: cell-based; conditions: A375 (BRAF p.V600E); 100 nM
Procedure: as §5, §6, §7, §8, §9

[13] = tested on: phospho-MEK in SK-MEL-28 cells; test: pMEK/tMEK ratio in SK-MEL-28 melanoma model; type: cell-based; conditions: SK-MEL-28 (BRAF p.V600E); 100 nM
Procedure: as §5, §6, §7, §8, §9

[14] = Plasma stability, mouse plasma (Balb/c; Table 5 head CD-1 Mouse); type: in vitro ADME; conditions: 2 μM
in vitro = conditions: human; for Papp A→B at 2 h, 10 μM: Caco-2, Mean Papp A-B (10^-6 cm/s); for Papp B→A at 2 h, 10 μM: Caco-2, Mean Papp B-A (10^-6 cm/s)
[15] = Human liver microsome stability (t1/2, Clint)
[16] = human, liver microsomes, pH 7.4
[17] = 1 μM, 0.5 mg/ml microsomal protein

SMILES	pERK/tERK ratio normalized to DMSO [3]	pERK/tERK ratio normalized to DMSO [4]	pERK/tERK ratio normalized to DMSO [5]	pERK/tERK ratio normalized to DMSO [6]	pERK/tERK ratio normalized to DMSO [7]	pMEK/tMEK ratio normalized to DMSO [8]	pMEK/tMEK ratio normalized to DMSO [10]	pMEK/tMEK ratio normalized to DMSO [11]	pMEK/tMEK ratio normalized to DMSO [12]	pMEK/tMEK ratio normalized to DMSO [13]	A-B Permeability Ranking (Caco-2 cells)	Papp A→B at 2 h, 10 μM (in vitro) [×10⁻⁶ cm/s]	Papp B→A at 2 h, 10 μM (in vitro) [×10⁻⁶ cm/s]	further results
Cn1cnc2c(F)c(Nc3ccc(Br)cc3Cl)c(C(=O)NOCCO)cc21 [Reference-1, Selumetinib]	0.191	0.255	0.114	0.293	0.152	2.988	4.945	5.483	0.962	0.984	High	8.83	28.2	Human (% Reamining @1 hour) ([1]; liver microsomes, 1 hour): 75.8%; Beagle Dog (% Reamining @1 hour) ([2]; liver microsomes, 1 hour): 97.5%; pMEK/tMEK ratio normalized to DMSO [9]: 2.177; CD-1 Mouse (% Reamining @2 hour) ([14]; CD-1, mouse, 2 h, pH 7.4): 104.8%; efflux ratio at 2 h, 10 μM (in vitro; Caco-2, Mean (B-A/A-B) (Efflux Ratio)): 3.19; half-life at 1 μM [15, 16]: > 1.5 h
CNS(=O)(=O)Nc1nccc(Cc2c(C)c3ccc(Oc4ncccn4)cc3oc2=O)c1F [Reference-2, reference compound]											High	18.1	20.9	Human (% Reamining @1 hour) ([1]; human, 1 h, pH 7.4): 107.1%; Beagle Dog (% Reamining @1 hour) ([2]; beagle, dog, 1 h, pH 7.4): 111.6%; CD-1 Mouse (% Reamining @2 hour) ([14]; plasma, 2 hour): 92.9%; microsomal CLint at 1 μM [15, 16]: < 15 µL/min/mg
CNS(=O)(=O)Nc1cccc(Cc2c(CN(C)C)c3ccc(OC(=O)N(C)C)cc3oc2=O)c1F [Compound 9]														Human Clint [15, 17]: 40 µL/min/mg; Human Microsome (t1/2 min) [15, 17]: 0.583 h
CNS(=O)(=O)Nc1cccc(Cc2c(CN(C)C)c3ccc(OC(=O)N(C)C)cc3oc2=O)c1Cl [Compound 274, 3-(2-chloro-3-((N-methylsulfamoyl)amino)benzyl)-4-((dimethylamino)methyl)-2-oxo-2H-chromen-7-yl dimethylcarbamate]	0.439	0.533	0.423	0.731	0.745	0.548	0.672	0.904	0.585	0.763				pMEK/tMEK ratio normalized to DMSO ([9]; SK-MEL-30 (NRAS p.Q61K), 100 nM): 0.609
